# Reference: ChEMBL document CHEMBL5356980, “Linker optimization and activity validation of a cell surface vimentin targeted homo-dimeric peptoid antagonist for lung cancer stem cells” (Bioorg Med Chem, 2024)
# Calls of active or inactive are those of the source. The calls are words filed in the database; no cut-off is given here.
# Assays:
# NCI-H1299 [1] = experiment: Induction of apoptosis in human NCI-H1299 cells assessed as necrotic cells at 20 uM incubated for 12 hrs by annexin V/PI staining based flow cytometry analysis (reference value: 2.62%); assay type: functional
# NCI-H1299 [2] = experiment: Induction of apoptosis in human NCI-H1299 cells assessed as viable cells at 20 uM incubated for 12 hrs by annexin V/PI staining based flow cytometry analysis (reference value: 94.6%); assay type: functional; details: read-out: Activity
# NCI-H1299 [3] = experiment: Induction of apoptosis in human NCI-H1299 cells assessed as necrotic cells at 10 uM incubated for 12 hrs by annexin V/PI staining based flow cytometry analysis (reference value: 2.62%); assay type: functional
# NCI-H1299 [4] = experiment: Induction of apoptosis in human NCI-H1299 cells assessed as late apoptotic cells at 10 uM incubated for 12 hrs by annexin V/PI staining based flow cytometry analysis (reference value: 2.05%); assay type: functional
# NCI-H1299 [5] = experiment: Induction of apoptosis in human NCI-H1299 cells assessed as early apoptotic cells at 10 uM incubated for 12 hrs by annexin V/PI staining based flow cytometry analysis (reference value: 0.73%); assay type: functional
# NCI-H1299 [6] = experiment: Induction of apoptosis in human NCI-H1299 cells assessed as viable cells at 10 uM incubated for 12 hrs by annexin V/PI staining based flow cytometry analysis (reference value: 94.6%); assay type: functional; details: read-out: Activity
# NCI-H460 [7] = experiment: Induction of apoptosis in human NCI-H460 cells assessed as necrotic cells at 20 uM incubated for 12 hrs by annexin V/PI staining based flow cytometry analysis (reference value: 0.20%); assay type: functional
# NCI-H460 [8] = experiment: Induction of apoptosis in human NCI-H460 cells assessed as late apoptotic cells at 20 uM incubated for 12 hrs by annexin V/PI staining based flow cytometry analysis (reference value: 6.19%); assay type: functional
# NCI-H460 [9] = experiment: Induction of apoptosis in human NCI-H460 cells assessed as early apoptotic cells at 20 uM incubated for 12 hrs by annexin V/PI staining based flow cytometry analysis (reference value: 0.00%); assay type: functional
# NCI-H460 [10] = experiment: Induction of apoptosis in human NCI-H460 cells assessed as viable cells at 20 uM incubated for 12 hrs by annexin V/PI staining based flow cytometry analysis (reference value: 90.9%); assay type: functional; details: read-out: Activity
# NCI-H460 [11] = experiment: Induction of apoptosis in human NCI-H460 cells assessed as necrotic cells at 10 uM incubated for 12 hrs by annexin V/PI staining based flow cytometry analysis (reference value: 0.20%); assay type: functional
# NCI-H460 [12] = experiment: Induction of apoptosis in human NCI-H460 cells assessed as early apoptotic cells at 10 uM incubated for 12 hrs by annexin V/PI staining based flow cytometry analysis (reference value: 0.00%); assay type: functional
# NCI-H460 [13] = experiment: Induction of apoptosis in human NCI-H460 cells assessed as viable cells at 10 uM incubated for 12 hrs by annexin V/PI staining based flow cytometry analysis (reference value: 90.9%); assay type: functional; details: read-out: Activity
# NCI-H1299 [14] = experiment: Antiproliferative activity against human NCI-H1299 cells assessed as inhibition of cell growth measured for 18 hrs by MTS assay; assay type: functional, cell-based
# NCI-H1299 [15] = experiment: Antiproliferative activity against human NCI-H1299 cells assessed as inhibition of cell growth measured for 2 hrs by MTS assay; assay type: functional, cell-based; details: NCI-H1299, 2 h
# NCI-H1299 [16] = experiment: Inhibition of cell migration of human NCI-H1299 cells assessed as reduction in wound distance at 10 uM incubated for 24 hrs by crystal violet staining based microscopic analysis; assay type: functional
# NCI-H460 [17] = experiment: Inhibition of cell migration of human NCI-H460 cells assessed as reduction in wound distance at 10 uM incubated for 24 hrs by crystal violet staining based microscopic analysis; assay type: functional
# NCI-H1299 [18] = experiment: Inhibition of cell migration of human NCI-H1299 cells assessed as reduction in wound closure incubated for 24 hrs by crystal violet staining based microscopic analysis; assay type: functional; details: NCI-H1299, 24 h
# NCI-H460 [19] = experiment: Inhibition of cell migration of human NCI-H460 cells assessed as reduction in wound closure incubated for 24 hrs by crystal violet staining based microscopic analysis; assay type: functional; details: NCI-H460, 24 h
# NCI-H1299 [20] = experiment: Inhibition of cell migration of human NCI-H1299 cells incubated for 24 hrs by crystal violet staining based microscopic analysis; assay type: functional; details: dose <= 10000.0 nM
# NCI-H460 [21] = experiment: Inhibition of cell migration of human NCI-H460 cells incubated for 24 hrs by crystal violet staining based microscopic analysis; assay type: functional; details: dose <= 10000.0 nM
# NCI-H460 [22] = experiment: Inhibition of colony formation in human NCI-H460 cells at 300 nM incubated for 8 days by crystal violet staining based analysis; assay type: functional, cell-based; details: time 8.0 day
# NCI-H460 [23] = experiment: Inhibition of colony formation in human NCI-H460 cells incubated for 8 days by crystal violet staining based analysis; assay type: functional, cell-based
# NCI-H1299 [24] = experiment: Induction of apoptosis in human NCI-H1299 cells assessed as late apoptotic cells at 20 uM incubated for 12 hrs by annexin V/PI staining based flow cytometry analysis (reference value: 2.05%); assay type: functional
# NCI-H1299 [25] = experiment: Induction of apoptosis in human NCI-H1299 cells assessed as early apoptotic cells at 20 uM incubated for 12 hrs by annexin V/PI staining based flow cytometry analysis (reference value: 0.73%); assay type: functional
# NCI-H460 [26] = experiment: Induction of apoptosis in human NCI-H460 cells assessed as late apoptotic cells at 10 uM incubated for 12 hrs by annexin V/PI staining based flow cytometry analysis (reference value: 6.19%); assay type: functional
# NCI-H1299 [27] = experiment: Inhibition of colony formation in human NCI-H1299 cells incubated for 8 days by crystal violet staining based analysis; assay type: functional, cell-based
# NCI-H1299 [28] = experiment: Antimigratory activity against human NCI-H1299 assessed as inhibition of cell migration incubated for 24 hrs by crystal violet staining based microscopic analysis; assay type: functional; details: NCI-H1299, 24 h
# Vimentin = Vimentin (Homo sapiens, UniProt P08670); experiment: Binding affinity to his-tagged recombinant Vimentin (unknown origin) assessed as dissociation constant by ELISA analysis
# NCI-H1299 [29] = experiment: Antiproliferative activity against human NCI-H1299 cells expressing vimentin assessed as inhibition of cell growth incubated for 3 days by MTS assay; assay type: functional, cell-based; details: NCI-H1299, 72 h
# NCI-H460 [30] = experiment: Antiproliferative activity against human NCI-H460 cells expressing vimentin assessed as inhibition of cell growth incubated for 3 days by MTS assay; assay type: functional, cell-based; details: NCI-H460, 72 h
# NCI-H2009 = experiment: Antiproliferative activity against human NCI-H2009 cells expressing vimentin assessed as inhibition of cell growth incubated for 3 days by MTS assay; assay type: functional, cell-based; details: NCI-H2009, 72 h
# NCI-H358 = experiment: Antiproliferative activity against human NCI-H358 cells expressing vimentin assessed as inhibition of cell growth incubated for 3 days by MTS assay; assay type: functional, cell-based; details: NCI-H358, 72 h
# NCI-H2122 = experiment: Antiproliferative activity against human NCI-H2122 cells expressing vimentin assessed as inhibition of cell growth incubated for 3 days by MTS assay; assay type: functional, cell-based; details: NCI-H2122, 72 h
# HBEC3-KT = experiment: Antiproliferative activity against human HBEC3-KT cells assessed as inhibition of cell growth incubated for 3 days by MTS assay; assay type: toxicity, cell-based; details: 72 h, time 3 day
# Sequence of Vimentin (P08670 whole entry): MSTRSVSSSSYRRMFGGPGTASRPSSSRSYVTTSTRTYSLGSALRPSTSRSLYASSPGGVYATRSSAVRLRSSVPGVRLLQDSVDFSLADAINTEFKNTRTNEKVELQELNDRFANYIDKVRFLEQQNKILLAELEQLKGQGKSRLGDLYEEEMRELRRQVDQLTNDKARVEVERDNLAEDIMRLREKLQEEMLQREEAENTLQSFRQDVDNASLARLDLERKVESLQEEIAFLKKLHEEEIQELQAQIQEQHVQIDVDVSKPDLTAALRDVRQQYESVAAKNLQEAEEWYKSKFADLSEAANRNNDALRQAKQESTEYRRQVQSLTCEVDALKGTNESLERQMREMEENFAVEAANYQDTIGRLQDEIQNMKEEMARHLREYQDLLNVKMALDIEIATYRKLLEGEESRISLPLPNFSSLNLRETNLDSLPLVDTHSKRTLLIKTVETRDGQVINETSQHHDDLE
smiles,measurement,setting,value
COCCN(CC(=O)N[C@@H](CCCCN)C(=O)N[C@H](C)C(=O)NCC(=O)NCCCCC(NC(=O)CNC(=O)[C@@H](C)NC(=O)[C@H](CCCCN)NC(=O)CN(CCOC)C(=O)CN(Cc1ccc2c(c1)OCO2)C(=O)CN(CC(C)C)C(=O)CN(CCCCN)C(=O)CN(CCCCN)C(=O)CN(CC(C)C)C(=O)CNc1cccc(C(=O)c2ccccc2)c1)C(N)=O)C(=O)CN(Cc1ccc2c(c1)OCO2)C(=O)CN(CC(C)C)C(=O)CN(CCCCN)C(=O)CN(CCCCN)C(=O)CN(CC(C)C)C(=O)CNc1ccc(C(=O)c2ccccc2)cc1 (some centres not stated),Activity,NCI-H1299 [1],1.37%
same,viability at 20 µM,NCI-H1299 [2],21.3%
same,Activity,NCI-H1299 [3],0.98%
same,Activity,NCI-H1299 [4],8.1%
same,Activity,NCI-H1299 [5],0.44%
same,viability at 10 µM,NCI-H1299 [6],50.5%
same,Activity,NCI-H460 [7],12.8%
same,Activity,NCI-H460 [8],45.5%
same,Activity,NCI-H460 [9],1.09%
same,viability at 20 µM,NCI-H460 [10],0.06%
same,Activity,NCI-H460 [11],1.3%
same,Activity,NCI-H460 [12],1.15%
same,viability at 10 µM,NCI-H460 [13],62.2%
same,Activity,NCI-H1299 [14],inactive
same,IC50,NCI-H1299 [15],~21 µM
same,inhibition,NCI-H1299 [16],Active
same,inhibition,NCI-H460 [17],Active
same,IC50,NCI-H1299 [18],2 µM
same,IC50,NCI-H460 [19],4 µM
same,inhibition,NCI-H1299 [20],Dose-Dependent Effect
same,inhibition,NCI-H460 [21],Dose-Dependent Effect
same,inhibition,NCI-H460 [22],Active
same,IC50,"NCI-H460 [23]; NCI-H460, 192 h",0.4 µM
same,inhibition,NCI-H460 [23]; time 8.0 day,Dose-Dependent Effect
same,Activity,NCI-H1299 [24],26%
same,Activity,NCI-H1299 [25],0.46%
same,Activity,NCI-H460 [26],15.3%
same,IC50,"NCI-H1299 [27]; NCI-H1299, 192 h",0.8 µM
same,inhibition,NCI-H1299 [27]; time 8.0 day,Dose-Dependent Effect
same,IC50,NCI-H1299 [28],~2 µM
same,Kd,Vimentin,~0.1 µM
same,IC50,NCI-H1299 [29],6.7 µM
same,IC50,NCI-H460 [30],8.6 µM
same,IC50,NCI-H2009,14.3 µM
same,IC50,NCI-H358,12.8 µM
same,IC50,NCI-H2122,30.5 µM
same,Activity,HBEC3-KT,Non-Toxic
